In patent publication US8946215B2, “Hydroxy-substituted imidazo[1,2-a]pyridinecarboxamides and their use” (Bayer Pharma Aktiengesellschaft, priority 2012, dated 2015):
Where a name gives a salt, the structure may show the parent alone.

molecular target: T1, recombinant guanylate cyclase reporter cell line (Rattus norvegicus, UniProt P19686+P20595); experiment: Action on recombinant guanylate cyclase reporter cell line; type: cell-based; conditions: in some cases mean values obtained from individual determinations
T1 construct: expressed in transfected cells
T1 sequence (P20595 1-619): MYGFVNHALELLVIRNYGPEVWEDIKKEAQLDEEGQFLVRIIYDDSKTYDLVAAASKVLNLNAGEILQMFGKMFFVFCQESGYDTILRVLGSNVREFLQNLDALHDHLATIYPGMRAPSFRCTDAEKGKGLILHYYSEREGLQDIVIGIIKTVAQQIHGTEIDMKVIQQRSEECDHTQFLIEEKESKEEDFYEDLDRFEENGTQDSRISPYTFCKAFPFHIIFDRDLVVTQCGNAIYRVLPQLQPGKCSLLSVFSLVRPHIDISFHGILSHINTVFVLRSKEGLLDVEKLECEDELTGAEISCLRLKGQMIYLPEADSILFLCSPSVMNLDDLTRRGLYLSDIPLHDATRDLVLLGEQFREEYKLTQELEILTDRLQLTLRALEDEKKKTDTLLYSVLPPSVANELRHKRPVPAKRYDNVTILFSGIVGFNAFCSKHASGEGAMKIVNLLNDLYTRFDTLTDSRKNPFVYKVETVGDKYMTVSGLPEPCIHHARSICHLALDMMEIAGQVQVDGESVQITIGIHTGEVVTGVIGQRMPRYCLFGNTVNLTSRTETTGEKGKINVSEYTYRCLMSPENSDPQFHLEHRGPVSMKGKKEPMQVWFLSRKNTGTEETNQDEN
T1 sequence (P19686 1-690): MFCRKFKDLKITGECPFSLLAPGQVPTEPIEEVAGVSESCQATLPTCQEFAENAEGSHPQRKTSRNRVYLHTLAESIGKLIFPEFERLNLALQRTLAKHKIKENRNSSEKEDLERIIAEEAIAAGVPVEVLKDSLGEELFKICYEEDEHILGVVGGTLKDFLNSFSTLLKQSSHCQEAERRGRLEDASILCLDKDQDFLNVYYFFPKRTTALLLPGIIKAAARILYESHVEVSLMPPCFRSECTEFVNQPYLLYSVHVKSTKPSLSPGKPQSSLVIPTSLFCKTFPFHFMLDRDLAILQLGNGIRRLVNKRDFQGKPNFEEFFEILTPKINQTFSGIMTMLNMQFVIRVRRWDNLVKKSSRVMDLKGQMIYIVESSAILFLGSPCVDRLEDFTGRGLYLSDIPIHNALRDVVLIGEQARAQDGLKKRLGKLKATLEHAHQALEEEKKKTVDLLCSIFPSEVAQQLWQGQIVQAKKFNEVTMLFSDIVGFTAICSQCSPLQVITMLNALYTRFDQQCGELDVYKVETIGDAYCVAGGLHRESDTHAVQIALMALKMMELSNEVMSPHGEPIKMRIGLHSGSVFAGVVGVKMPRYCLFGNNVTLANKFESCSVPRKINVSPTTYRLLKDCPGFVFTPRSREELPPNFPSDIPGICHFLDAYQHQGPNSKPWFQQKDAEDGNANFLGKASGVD
Procedure: B-2. Action on Recombinant Guanylate Cyclase Reporter Cell Line
The cellular action of the compounds according to the invention is determined on a recombinant guanylate cyclase reporter cell line, as described in F. Wunder et al., Anal. Biochem. 339, 104-112 (2005).
Representative values (MEC=minimal effective concentration) for the compounds according to the invention are shown in the following table (in some cases as mean values obtained from individual determinations): […]

With Cc1cc(OCc2ncccc2F)c2nc(C)c(C(=O)NC(CCC(O)C(F)(F)F)C(C)(C)O)n2c1 (mixture of isomers) [Example 195, 8-[(3-fluoropyridin-2-yl)methoxy]-2,6-dimethyl-N-(7,7,7-trifluoro-2,6-dihydroxy-2-methylheptan-3-yl)imidazo[1,2-a]pyridine-3-carboxamide (stereoisomer mixture)] as the compound, how does the “MEC (minimal effective concentration)” value read?
The value was 10 µM.

For Cc1nc2c(OCc3c(F)cccc3F)cccn2c1C(=O)NC1CCC(O)CC1 (racemic) [Example 42, (rac)-8-[(2,6-difluorobenzyl)oxy]-N-(trans-4-hydroxycyclohexyl)-2-methylimidazo[1,2-a]-pyridine-3-carboxamide], which “MEC (minimal effective concentration)” value is on record?
The value was 1.0 µM.

How did the “MEC (minimal effective concentration)” value turn out when CCC(CO)NC(=O)c1c(C)nc2c(OCC3CCCCC3)cccn12 (racemic) [Example 69, (rac)-8-(cyclohexylmethoxy)-N-(1-hydroxybutan-2-yl)-2-methylimidazo)[1,2-a]pyridine-3-carboxamide formate] was run?
The value was 0.1 µM.

How did the “MEC (minimal effective concentration)” value turn out when C=CCC(CO)NC(=O)c1c(C)nc2c(OCC3CCCCC3)cccn12 (racemic) [Example 70, (rac)-8-(cyclohexylmethoxy)-N-(1-hydroxypent-4-en-2-yl)-2-methylimidazo[1,2-a]pyridine-3-carboxamide] was run?
The value was 0.1 µM.

How did the “MEC (minimal effective concentration)” value turn out when Cc1nc2c(OCC3CCCCC3)cccn2c1C(=O)N[C@H]1CCC[C@@H]1O (racemic) [Example 71, (rac)-8-(cyclohexylmethoxy)-N-[trans-2-hydroxycyclopentyl]-2-methylimidazo[1,2-a]-pyridine-3-carboxamide] was run?
The value was 0.1 µM.

Which “MEC (minimal effective concentration)” value does the source give for Cc1nc2c(OCC3CCCCC3)cccn2c1C(=O)N[C@@H]1CCCC[C@H]1O (racemic) [Example 78, (rac)-8-(cyclohexylmethoxy)-N-[(trans)-2-hydroxycyclohexyl]-2-methylimidazo[1,2-a]-pyridine-3-carboxamide] here?
The value was 0.3 µM.

With Cc1nc2c(OCc3c(F)cccc3F)cccn2c1C(=O)NC(CO)CC(F)(F)F (racemic) [Example 100, rac-8-[(2,6-Difluorobenzyl)oxy]-2-methyl-N-(4,4,4-trifluoro-hydroxybutan-2-yl)imidazo[1,2-a]-pyridine-3-carboxamide trifluoroacetate] as the compound, how does the “MEC (minimal effective concentration)” value read?
Its value is 0.03 µM.

With Cc1nc2c(OCc3c(F)cccc3F)cccn2c1C(=O)NC(CO)CCC(F)(F)F (racemic) [Example 101, rac-8-[(2,6-difluorobenzyl)oxy]-2-methyl-N-(5,5,5-trifluoro-1-hydroxypentan-2-yl)-imidazo[1,2-a]pyridine-3-carboxamide trifluoroacetate] as the compound, how does the “MEC (minimal effective concentration)” value read?
Its value is 0.1 µM.

Which “MEC (minimal effective concentration)” value does the source give for Cc1nc2c(OCc3c(F)cccc3F)cccn2c1C(=O)NC(CO)c1ccc(F)cc1 (racemic) [Example 103, rac-8-[(2,6-difluorobenzyl)oxy]-N-[1-(4-fluorophenyl)-2-hydroxyethyl]-2-methylimidazo[1,2-a]pyridine-3-carboxamide trifluoroacetate] here?
Its value is 0.1 µM.

How did the “MEC (minimal effective concentration)” value turn out when Cc1nc2c(OCc3c(F)cccc3F)cccn2c1C(=O)NCC(O)C(F)(F)F (racemic) [Example 106, rac-8-[(2,6-difluorobenzyl)oxy]-2-methyl-N-(3,3,3-trifluoro-2-hydroxypropyl)imidazo[1,2-a]pyridine-3-carboxamide trifluoroacetate] was run?
The value was 0.3 µM.

How did the “MEC (minimal effective concentration)” value turn out when Cc1nc2c(OCc3c(F)cccc3F)cccn2c1C(=O)NC(CO)C(F)(F)F (racemic) [Example 110, rac-8-[(2,6-Difluorobenzyl)oxy]-2-methyl-N-(1,1,1-trifluoro-3-hydroxypropan-2-yl)imidazo[1,2-a]pyridine-3-carboxamide] was run?
Its value is 0.3 µM.

For Cc1nc2c(OCc3c(F)cccc3F)cccn2c1C(=O)NC(CO)CC(F)(F)F (racemic) [Example 113, rac-8-[(2,6-Difluorobenzyl)oxy]-2-methyl-N-(4,4,4-trifluoro-1-hydroxybutan-2-yl)imidazo[1,2-a]-pyridine-3-carboxamide], which “MEC (minimal effective concentration)” value is on record?
Its value is 0.03 µM.

How did the “MEC (minimal effective concentration)” value turn out when Cc1nc2c(OCc3c(F)cccc3F)cccn2c1C(=O)NC(CO)CCCC(F)(F)F (racemic) [Example 114, rac-8-[(2,6-difluorobenzyl)oxy]-2-methyl-N-(6,6,6-trifluoro-1-hydroxyhexan-2-yl)imidazo[1,2-a]pyridine-3-carboxamide] was run?
Its value is 0.03 µM.

Which “MEC (minimal effective concentration)” value does the source give for Cc1nc2c(OCc3c(F)cccc3F)cccn2c1C(=O)NC(CO)c1ccccn1 (racemic) [Example 119, rac-8-[(2,6-difluorobenzyl)oxy]-N-[2-hydroxy-1-(pyridin-2-yl)ethyl]-2-methylimidazo[1,2-a]-pyridine-3-carboxamide] here?
Its value is 0.3 µM.

Cc1nc2c(OCc3c(F)cccc3F)cccn2c1C(=O)NC(CO)c1ccc(S(C)(=O)=O)cc1 (racemic) [Example 120, rac-8-[(2,6-difluorobenzyl)oxy]-N-{2-hydroxy-1-[4-(methylsulphonyl)phenyl]ethyl}-2-methylimidazo[1,2-a]pyridine-3-carboxamide] was tested. Which “MEC (minimal effective concentration)” value did it give?
The value was 1.0 µM.

How did the “MEC (minimal effective concentration)” value turn out when Cc1nc2c(OCc3c(F)cccc3F)cccn2c1C(=O)NC(CO)c1cccnc1 (racemic) [Example 124, rac-8-[(2,6-Difluorobenzyl)oxy]-N-[2-hydroxy-1-(pyridin-3-yl)ethyl]-2-methylimidazo[1,2-a]-pyridine-3-carboxamide] was run?
Its value is 0.3 µM.

For Cc1nc2c(OCc3c(F)cccc3F)cccn2c1C(=O)NC(CCC(F)(F)F)C(C)(C)O (racemic) [Example 149, rac-8-[(2,6-difluorobenzyl)oxy]-2-methyl-N-(6,6,6-trifluoro-2-hydroxy-2-methylhexan-3-yl)imidazo[1,2-a]pyridine-3-carboxamide], which “MEC (minimal effective concentration)” value is on record?
The value was 0.1 µM.

Cc1nc2c(OCc3c(F)cccc3F)cccn2c1C(=O)NC(CCCC(F)(F)F)C(C)(C)O (racemic) [Example 150, rac-8-[(2,6-difluorobenzyl)oxy]-2-methyl-N-(7,7,7-trifluoro-2-hydroxy-2-methylheptan-3-yl)imidazo[1,2-a]pyridine-3-carboxamide] was tested. Which “MEC (minimal effective concentration)” value did it give?
The value was 0.03 µM.

How did the “MEC (minimal effective concentration)” value turn out when Cc1nc2c(OCc3c(F)cccc3F)cccn2c1C(=O)NC(c1ccc(Cl)cc1)C(C)(C)O (racemic) [Example 151, rac-N-[1-(4-chlorophenyl)-2-hydroxy-2-methylpropyl]-8-[(2,6-difluorobenzyl)oxy]-2-methylimidazo[1,2-a]pyridine-3-carboxamide] was run?
Its value is 0.3 µM.

How did the “MEC (minimal effective concentration)” value turn out when Cc1nc2c(OCc3c(F)cccc3F)cccn2c1C(=O)NC(c1ccc(F)cc1)C(C)(C)O (racemic) [Example 152, rac-8-[(2,6-difluorobenzyl)oxy]-N-[1-(4-fluorophenyl)-2-hydroxy-2-methylpropyl]-2-methylimidazo[1,2-a]pyridine-3-carboxamide] was run?
The value was 0.3 µM.

How did the “MEC (minimal effective concentration)” value turn out when CCOCC(CO)NC(=O)c1c(C)nc2c(OCc3c(F)cccc3F)cccn12 (racemic) [Example 160, rac-8-[(2,6-Difluorobenzyl)oxy]-N-(1-ethoxy-3-hydroxypropan-2-yl)-2-methylimidazo[1,2-a]-pyridine-3-carboxamide] was run?
The value was 0.3 µM.

CCCOCC(CO)NC(=O)c1c(C)nc2c(OCc3c(F)cccc3F)cccn12 (racemic) [Example 162, rac-8-[(2,6-Difluorobenzyl)oxy]-N-(1-hydroxy-3-propoxypropan-2-yl)-2-methylimidazo[1,2-a]-pyridine-3-carboxamide] was tested. Which “MEC (minimal effective concentration)” value did it give?
Its value is 0.3 µM.

same assay, conditions: in some cases mean values obtained from individual determinations, trifluoroacetate

With Cc1nc2c(OCc3c(F)cccc3F)cccn2c1C(=O)NC(CO)CCCC(F)(F)F (racemic) [Example 102, rac-8-[(2,6-difluorobenzyl)oxy]-2-methyl-N-(6,6,6-trifluoro-1-hydroxyhexan-2-yl)-imidazo[1,2-a]pyridine-3-carboxamide trifluoroacetate] as the compound, how does the “MEC (minimal effective concentration)” value read?
The value was 0.1 µM.
